The values that follow come from patent publication US20160045612A1, “FUNCTIONALIZED NANOPARTICLES FOR MEDICAL TREATMENTS” (UNIVERSITY OF MASSACHUSETTS, priority 2013, published 2016).

The experiment concerns engineered Str^r mutant E. coli ORN 208. In words: minimal inhibitory concentration (MIC) against streptomycin-resistant E. coli. The format is cell-based, Escherichia coli. How it is done:
The diverse particle size affects inhibition and control. Silica nanoparticles were synthesized with an average of 80, 50 and 30 nm. Streptomycin was conjugated via photocoupling method through perfluorophenyl azide (PFPA) chemistry. The MIC for free streptomycin sulfate was recorded as a high 2.0 mg/mL for an engineered Str^r mutant E. coli ORN 208.
It is reasonable to hypothesize that the more nanoparticles internalize into the bacteria the greater the effect of the antibiotic. […] The comparative difference of the streptomycin that can exert MIC is shown in FIG. 9 for the engineered Str^r mutant E. coli ORN 208 .

Counter-ions that a name gives are not always drawn.

Consider `[H]/N=C(/N)N[C@H]1[C@H](O)[C@@H](O)[C@H](O[C@@H]2O[C@@H](C)[C@](O)(C=O)[C@H]2O[C@@H]2O[C@@H](CO)[C@H](O)[C@@H](O)[C@@H]2NC)[C@@H](N/C(N)=N\[H])[C@@H]1O` [free streptomycin sulfate, Streptomycin sulfate], for which, under “Escherichia coli, read-out: minimum inhibitory concentration (MIC)”, the MIC came to 2000 µg/mL. Moreover, the “minimum inhibitory concentration (MIC)” value (streptomycin resistant E. coli, MIC as streptomycin) came out at 2000 µg/mL.
